Source: patent US11999697B2, “Methods and compositions for inhibition of dihydroorotate dehydrogenase” (OHIO STATE INNOVATION FOUNDATION, priority 2018, dated 2024)
Read-outs that look alike come from different tables or passages of the source.

How the values were obtained:
[1] = tested on: murine AML cells (Tet2-KO/Flt3-ITD, IDH2-R140Q/Flt3-ITD); test: MTS assay on murine AML bone marrow cells ex vivo; type: cell-based, mice; details: 0-10 μM, 96 hours
Excerpt: Triplicate wells were set up for each condition.
In particular, the in vivo effects of Cpd3 on the immune repertoire is important in view of previous reports describing DHODH inhibitors as having diverse effects on innate and cellular immune function. FIGS. 9A-9B show representative data for proliferation of murine AML cells in the presence of a representative disclosed compound, Cpd3, compared to a reference compound, brequinar (indicated as “BQR” in the figure). […] Briefly, bone marrow cells were isolated from leukemic Tet2-KO/Flt3-ITD mice (FIG. 9A; N=7) or leukemic IDH2-R140Q/Flt3-ITD mice (FIG. 9B; N=3) were treated ex vivo with Cpd3 or BQR (dose range 0-10 μM). Cell growth was determined at 96 hours relative to the vehicle (DMSO) control using a MTS cell proliferation assay as described herein below.

[2] = tested on: NK cell function (MV4-11 targets, normal donor NK cells); test: Antibody dependent cellular cytotoxicity (ADCC) assay by 51Cr release; type: cell-based, human; details: 1 μM, 4 hours 51Cr release
Description: Antibody Dependent Cellular Cytotoxicity (ADCC) Assay by ^51Cr Release: Assessment of NK-cell killing activity was performed using standard 4 hour ^51Cr release (CR) assay. Donor NK cells (effector cells) were isolated from the peripheral blood of normal donors (N=2). MV4-11 cells (target cells) were labeled with radioactive ^51Cr for 1 h at 37° C., washed, and plated in 96 well V-bottom plates at a density of 1×10^4 cells/well. Vehicle or 1 μM Cpd3 was added to either the NKs cells, the MV4-11 cells, or both prior to co-culturing. The ^51Cr labeled MV4-11 cells and NK cells were then co-cultured 25:1 or 12:1 effector to target (E:T) ratio in the presence of antibodies targeting the CD33 surface receptor (B133; B1836858), non-targeting isotype control (B147; B1836847), each at […], or no antibody control. Supernatants were collected after 4 h of co-culture and counted on a Perkin Elmer (Waltham, Mass.) Wizard γ-counter. The percentage of specific cell lysis was determined by: % lysis=100×(ER-SR)/(MR-SR). ER, SR, and MR represent experimental, spontaneous and maximum release. Data were normalized to the untreated control.
Briefly, a chromium (Cr^51) release antibody dependent cellular toxicity assay was carried out with MV4-11 cells (targets) and normal donor NK cells (effectors; N=2). […] Cr^51 release was measured following 4 hours of incubation to determine relative toxicity.

[3] = Pharmacokinetic study, oral dosing at different dose levels; type: in vivo, wild type B6 mice; details: for AUC(0-t) / Cmax / Tmax / half-life: B6, mouse, plasma, oral gavage; for AUC(0-t): po
Excerpt: LC-MS/MS Assay Materials: Acetonitrile and methanol were LC-MS grade (Fisher Scientific (Fair Lawn, N.J., USA). Other chemicals were as follows: formic Acid (98%, v/v in water; Fisher Scientific, Fair Lawn, N.J., USA); ammonium acetate (Sigma Aldrich Inc.); water: DDH2O obtained from a Millipore water system; and brequinar was obtained from Sigma. (>99% purity). Solvent A: 0.1% formic acid in water. Solvent B: 0.1% Formic Acid in methanol and acetonitrile. Internal Standard (“IS”) precipitation solution was 150 ng/ml internal standards in acetonitrile: water (3:1, v/v).
Sample preparation: To 10 μL plasma sample was added 100 μL of working IS solution and 20 μL MeOH. Samples were then vortexed for 30 seconds, followed by centrifugation (Eppendorf 5415 R centrifuge) at 10,000 rpm for 8 minutes at 4° C. Supernatant of each sample was transferred into an autosampler vial and sealed with rubber/Teflon crimp cap. Sample volume that was injected onto HPLC was 5 μL. The calibrations samples were prepared at a test compound concentration of 1000, 500, 250, 100, 50, 10, 5 ng/mL in mouse plasma. The quality control samples were as follows: QC1=750 ng/mL, OC2=75 ng/mL, QC3=25 ng/mL, LLOQ=5 ng/mL.
HPLC Parameters: Accucore Vanquish C18 column (100×2.1 mm, dp=1.5 μm) used in a Vanquish UHPLC system, using a XBridge® BEH C18, 5-μm guard column. Mobile phase: gradient as provided below in Table 8 below. Column temperature: 40° C.±5° C.; Autosampler temperature: 10° C.±5° C. Flow rate: 0.4 ml/min. run time: 5.0 min.
The mass spectrometer used was a TSQ Quantiva (Thermo Fisher Scientific).
FIGS. 14A-14C show representative pharmacokinetic data obtained following administration of a representative disclosed compound, Cpd3, via oral dosing at different dose levels carried out using the methods described herein below in Examples. Briefly, wild type B6 mice were administered a single dose of Cpd3 by oral gavage at increasing concentrations (10, 25, 50 and 75 mg/kg). Blood plasma was sampled at 15, 30 and 60 minutes, and 2, 6 and 24 hours.

SMILES: CCOc1ccc(-c2ccc(-c3cc(C(=O)O)c4cc(F)ccc4n3)cc2)cc1 [Cpd3, 2-(4′-ethoxy-[1,1′-biphenyl]-4-yl)-6-fluoroquinoline-4-carboxylic acid]
- potency on murine leukemic cells ex vivo relative to BQR [1]: a log fold more potent than BQR
- NK cell function [2]: does not impact NK cell function
- AUC(0-t) ([3]; 10 mg/kg, 10 mg/kg, read-out: AUC0-6): 47 ± 0.92 µg·h/mL
- AUC(0-t) ([3]; 10 mg/kg, 10 mg/kg, read-out: AUC0-24): 66.7 ± 6.17 µg·h/mL
- AUC(0-t) ([3]; 25 mg/kg, 25 mg/kg, read-out: AUC0-6): 101 ± 38 µg·h/mL
- AUC(0-t) ([3]; 25 mg/kg, 25 mg/kg, read-out: AUC0-24): 171 ± 34.2 µg·h/mL
- AUC(0-t) ([3]; 50 mg/kg, 50 mg/kg, read-out: AUC0-6): 333 ± 47.1 µg·h/mL
- AUC(0-t) ([3]; 50 mg/kg, 50 mg/kg, read-out: AUC0-24): 480 ± 62.1 µg·h/mL
- AUC(0-t) ([3]; 75 mg/kg, 75 mg/kg, read-out: AUC0-6): 531 ± 103 µg·h/mL
- AUC(0-t) ([3]; 75 mg/kg, 75 mg/kg, read-out: AUC0-24): 786 ± 39.3 µg·h/mL
- Cmax ([3]; 10 mg/kg): 18.6 ± 0.93 µg/mL
- Tmax ([3]; 10 mg/kg): 49.8 ± 17.4 min
- half-life ([3]; 10 mg/kg): 204 ± 18 min
- Cmax ([3]; 25 mg/kg): 35.9 ± 12.5 µg/mL
- Tmax ([3]; 25 mg/kg): 40.2 ± 17.4 min
- half-life ([3]; 25 mg/kg): 363 ± 118 min
- Cmax ([3]; 50 mg/kg): 93.2 ± 18 µg/mL
- Tmax ([3]; 50 mg/kg): 40.2 ± 17.4 min
- half-life ([3]; 50 mg/kg): 194 ± 46.2 min
- Cmax ([3]; 75 mg/kg): 115 ± 8.99 µg/mL
- Tmax ([3]; 75 mg/kg): 45 ± 21 min
- half-life ([3]; 75 mg/kg): 166 ± 18 min
- relationship between dose and exposure ([3]; oral gavage, 10, 25, 50 and 75 mg/kg): linear relationship between dose and exposure
